pIC50: −log10 of the molar value. “And” between values parts separate entries of the source, which are not always exact repeats. Equal entries are not always repeated.
Tested on: 327498-153-R-J2-PDC complex spheroid growth, % test/control
Assay: Anticancer human tumor 327498-153-R-J2-PDC patient-derived uterine carcinosarcoma cell line growth inhibition [Asc]
Conditions: for viability, T/C: stronger effect = lower value
Method in brief: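 Tumor cells were grown as multicellular spheroids with stromal HUVEC and mesenchymal stem cells and treated singly or in combination. Concentrations fell in half-log steps from the clinical Cmax, or from 10 microM where none was known.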

[1] = curve of first compound, second compound 0.1 µM
[2] = curve of first compound, second compound 0.316 µM
[3] = curve of first compound, second compound 1 µM
[4] = curve of first compound, second compound 3.16 µM
[5] = curve of first compound, second compound 10 µM
[6] = second compound 0.1 µM, first compound 0.0316 µM
[7] = second compound 0.1 µM, first compound 0.1 µM
[8] = second compound 0.1 µM, first compound 0.316 µM
[9] = second compound 0.1 µM, first compound 1 µM
[10] = second compound 0.316 µM, first compound 0.0316 µM
[11] = second compound 0.316 µM, first compound 0.1 µM
[12] = second compound 0.316 µM, first compound 0.316 µM
[13] = second compound 0.316 µM, first compound 1 µM
[14] = second compound 1 µM, first compound 0.0316 µM
[15] = second compound 1 µM, first compound 0.1 µM
[16] = second compound 1 µM, first compound 0.316 µM
[17] = second compound 1 µM, first compound 1 µM
[18] = second compound 3.16 µM, first compound 0.0316 µM
[19] = second compound 3.16 µM, first compound 0.1 µM
[20] = second compound 3.16 µM, first compound 0.316 µM
[21] = second compound 3.16 µM, first compound 1 µM
[22] = second compound 10 µM, first compound 0.0316 µM
[23] = second compound 10 µM, first compound 0.1 µM
[24] = second compound 10 µM, first compound 0.316 µM
[25] = second compound 10 µM, first compound 1 µM
[26] = second compound 0.1 µM, first compound 0.00316 µM
[27] = second compound 0.1 µM, first compound 0.01 µM
[28] = second compound 0.316 µM, first compound 0.00316 µM
[29] = second compound 0.316 µM, first compound 0.01 µM
[30] = second compound 1 µM, first compound 0.00316 µM
[31] = second compound 1 µM, first compound 0.01 µM
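Note: spheroids exposed to compound for 7 days after 3 days of growth.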
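Throughout, for viability, T/C: 100% = DMSO vehicle control wells.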

With `O=C(c1cc(Cc2n[nH]c(=O)c3ccccc23)ccc1F)N1CCN(C(=O)C2CC2)CC1` + Cc1c(S(C)(=O)=O)c(-c2cc(F)cc(N3CCN(c4ccc(NS(=O)(=O)c5ccc(NC(CCN6CCC(C(=O)OCCCP(=O)(O)O)CC6)CSc6ccccc6)c(S(=O)(=O)C(F)(F)F)c5)cc4)CC3)c2)c(-c2ccc(Cl)cc2)n1C(C)C the pIC50 [1] was 5.43, the pIC50 [2] was 5.60 and the pIC50 [3] was 5.60. It also gave a pIC50 [4] of 5.60, a pIC50 [5] of 5.50 and a viability, T/C [6] of 103%. The viability, T/C [7] was 102%, the viability, T/C [8] was 88.6% and the viability, T/C [9] was 88.1%. For the same compound, the viability, T/C (second compound 0.1 µM, first compound 3.16 µM) was 55.5%, the viability, T/C (second compound 0.1 µM, first compound 10 µM) was 9.69% and the viability, T/C [10] was 85.4%. The viability, T/C [11] was 89.2%, the viability, T/C [12] was 86.4% and the viability, T/C [13] was 75.4%. The viability, T/C (second compound 0.316 µM, first compound 3.16 µM) was 43.9%, the viability, T/C (second compound 0.316 µM, first compound 10 µM) was 7.08% and the viability, T/C [14] was 94.5%. It also gave a viability, T/C [15] of 102%, a viability, T/C [16] of 86.9% and a viability, T/C [17] of 76.9%. For the same compound, the viability, T/C (second compound 1 µM, first compound 3.16 µM) was 43%, the viability, T/C (second compound 1 µM, first compound 10 µM) was 6.29% and the viability, T/C [18] was 94%. The viability, T/C [19] was 89.5%, the viability, T/C [20] was 86% and the viability, T/C [21] was 76%. The viability, T/C (second compound 3.16 µM, first compound 3.16 µM) was 43.2%, the viability, T/C (second compound 3.16 µM, first compound 10 µM) was 4.54% and the viability, T/C [22] was 164%. The viability, T/C [23] was 164%, the viability, T/C [24] was 157% and the viability, T/C [25] was 112%. For the same compound, the viability, T/C (second compound 10 µM, first compound 3.16 µM) was 49.1% and the viability, T/C (second compound 10 µM, first compound 10 µM) was 6.96%.

`Cc1nc(N2CCC3(CC2)COC(C)C3N)c(CO)nc1Sc1ccnc(N)c1Cl` (configuration not stated) was tested, and the viability, T/C (compound 0.00949 µM) was 98.2% and 101% and 93%, the viability, T/C (compound 0.03 µM) was 94% and 88.4% and 87.5% and the viability, T/C (compound 0.0949 µM) was 86.9% and 73.2% and 77%. For the same compound, the viability, T/C (compound 0.3 µM) was 76.2% and 64.7% and 71.6%, the viability, T/C (compound 0.949 µM) was 65.4% and 58.5% and 56.2% and the viability, T/C (compound 3 µM) was 49.8% and 40.1% and 52.5%. The pIC50 (curve of compound) was < 5.52 and 5.85.

With `O=C(c1cc(Cc2n[nH]c(=O)c3ccccc23)ccc1F)N1CCN(C(=O)C2CC2)CC1` + CCN1C(C(=O)NC23CCC(C(=O)O)(CC2)CC3)C(c2cccc(Cl)c2F)C2(C(=O)Nc3cc(Cl)ccc32)C12CCCCC2 the pIC50 (curve of first compound, second compound 0.03 µM) was 5.76, the pIC50 (curve of first compound, second compound 0.0949 µM) was 6.23 and the pIC50 (curve of first compound, second compound 0.3 µM) was > 7.50. The pIC50 (curve of first compound, second compound 0.949 µM) was > 7.50, the pIC50 (curve of first compound, second compound 3 µM) was > 7.50 and the viability, T/C (second compound 0.03 µM, first compound 0.0316 µM) was 94.9%. The viability, T/C (second compound 0.03 µM, first compound 0.1 µM) was 83.6%, the viability, T/C (second compound 0.03 µM, first compound 0.316 µM) was 80.9% and the viability, T/C (second compound 0.03 µM, first compound 1 µM) was 63.6%. It also gave a viability, T/C (second compound 0.03 µM, first compound 3.16 µM) of 35%, a viability, T/C (second compound 0.03 µM, first compound 10 µM) of 9.54% and a viability, T/C (second compound 0.0949 µM, first compound 0.0316 µM) of 74.5%. For the same compound, the viability, T/C (second compound 0.0949 µM, first compound 0.1 µM) was 63%, the viability, T/C (second compound 0.0949 µM, first compound 0.316 µM) was 61% and the viability, T/C (second compound 0.0949 µM, first compound 1 µM) was 42.8%. The viability, T/C (second compound 0.0949 µM, first compound 3.16 µM) was 14.8%, the viability, T/C (second compound 0.0949 µM, first compound 10 µM) was 5.01% and the viability, T/C (second compound 0.3 µM, first compound 0.0316 µM) was 33.6%. The viability, T/C (second compound 0.3 µM, first compound 0.1 µM) was 29.5%, the viability, T/C (second compound 0.3 µM, first compound 0.316 µM) was 20.9% and the viability, T/C (second compound 0.3 µM, first compound 1 µM) was 17.4%. It also gave a viability, T/C (second compound 0.3 µM, first compound 3.16 µM) of 5.47%, a viability, T/C (second compound 0.3 µM, first compound 10 µM) of 3.11% and a viability, T/C (second compound 0.949 µM, first compound 0.0316 µM) of 9.62%. The viability, T/C (second compound 0.949 µM, first compound 0.1 µM) was 5.99%, the viability, T/C (second compound 0.949 µM, first compound 0.316 µM) was 4.91% and the viability, T/C (second compound 0.949 µM, first compound 1 µM) was 4.88%. For the same compound, the viability, T/C (second compound 0.949 µM, first compound 3.16 µM) was 3.33%, the viability, T/C (second compound 0.949 µM, first compound 10 µM) was 2.8% and the viability, T/C (second compound 3 µM, first compound 0.0316 µM) was 2.94%. For the same compound, the viability, T/C (second compound 3 µM, first compound 0.1 µM) was 3.36%, the viability, T/C (second compound 3 µM, first compound 0.316 µM) was 2.53% and the viability, T/C (second compound 3 µM, first compound 1 µM) was 3.39%. For the same compound, the viability, T/C (second compound 3 µM, first compound 3.16 µM) was 2.26% and the viability, T/C (second compound 3 µM, first compound 10 µM) was 2.33%.

`CCN1CCN(Cc2ccc(Nc3ncc(F)c(-c4cc(F)c5nc(C)n(C(C)C)c5c4)n3)nc2)CC1` + Cc1c(S(C)(=O)=O)c(-c2cc(F)cc(N3CCN(c4ccc(NS(=O)(=O)c5ccc(NC(CCN6CCC(C(=O)OCCCP(=O)(O)O)CC6)CSc6ccccc6)c(S(=O)(=O)C(F)(F)F)c5)cc4)CC3)c2)c(-c2ccc(Cl)cc2)n1C(C)C was tested, and the pIC50 [1] was < 6.00, the pIC50 [2] was < 6.00 and the pIC50 [3] was < 6.00. For the same compound, the pIC50 [4] was < 6.00, the pIC50 [5] was < 6.00 and the viability, T/C [26] was 101%. For the same compound, the viability, T/C [27] was 94.9%, the viability, T/C [6] was 76.3% and the viability, T/C [7] was 64.1%. It also gave a viability, T/C [8] of 64.5%, a viability, T/C [9] of 67.8% and a viability, T/C [28] of 94.7%. The viability, T/C [29] was 95.2%, the viability, T/C [10] was 78.2% and the viability, T/C [11] was 63.9%. For the same compound, the viability, T/C [12] was 49.7%, the viability, T/C [13] was 55.8% and the viability, T/C [30] was 95.3%. It also gave a viability, T/C [31] of 93%, a viability, T/C [14] of 85.9% and a viability, T/C [15] of 65.7%. For the same compound, the viability, T/C [16] was 56.9%, the viability, T/C [17] was 57.2% and the viability, T/C (second compound 3.16 µM, first compound 0.00316 µM) was 105%. The viability, T/C (second compound 3.16 µM, first compound 0.01 µM) was 94.7%, the viability, T/C [18] was 72.1% and the viability, T/C [19] was 55.8%. The viability, T/C [20] was 62.3%, the viability, T/C [21] was 49.5% and the viability, T/C (second compound 10 µM, first compound 0.00316 µM) was 184%. For the same compound, the viability, T/C (second compound 10 µM, first compound 0.01 µM) was 172%, the viability, T/C [22] was 145% and the viability, T/C [23] was 105%. For the same compound, the viability, T/C [24] was 96% and the viability, T/C [25] was 79.4%.

Work on `Cn1ncnc1[C@H]1c2n[nH]c(=O)c3cc(F)cc(c23)N[C@@H]1c1ccc(F)cc1` + CNC(C)C(=O)NC1CN(S(=O)(=O)c2cccc(S(=O)(=O)N3CCC4CCC(C(=O)NC(c5ccccc5)c5ccccc5)N4C(=O)C(NC(=O)C(C)NC)C3)c2)CCC2CCC(C(=O)NC(c3ccccc3)c3ccccc3)N2C1=O yielded a pIC50 (curve of first compound, second compound 0.01 µM) of 7.79, a pIC50 (curve of first compound, second compound 0.0316 µM) of 7.77 and a pIC50 [1] of 7.75. For the same compound, the pIC50 [2] was 7.83, the pIC50 [3] was 7.78 and the viability, T/C (second compound 0.01 µM, first compound 0.000316 µM) was 98.5%. It also gave a viability, T/C (second compound 0.01 µM, first compound 0.001 µM) of 109%, a viability, T/C (second compound 0.01 µM, first compound 0.00316 µM) of 101% and a viability, T/C (second compound 0.01 µM, first compound 0.01 µM) of 68%. For the same compound, the viability, T/C (second compound 0.01 µM, first compound 0.0316 µM) was 24.8%, the viability, T/C (second compound 0.01 µM, first compound 0.1 µM) was 8.36% and the viability, T/C (second compound 0.0316 µM, first compound 0.000316 µM) was 98.9%. The viability, T/C (second compound 0.0316 µM, first compound 0.001 µM) was 111%, the viability, T/C (second compound 0.0316 µM, first compound 0.00316 µM) was 98.2% and the viability, T/C (second compound 0.0316 µM, first compound 0.01 µM) was 73.8%. It also gave a viability, T/C (second compound 0.0316 µM, first compound 0.0316 µM) of 22.6%, a viability, T/C (second compound 0.0316 µM, first compound 0.1 µM) of 8.68% and a viability, T/C (second compound 0.1 µM, first compound 0.000316 µM) of 98.2%. For the same compound, the viability, T/C (second compound 0.1 µM, first compound 0.001 µM) was 106%, the viability, T/C [26] was 91.2% and the viability, T/C [27] was 73.3%. The viability, T/C [6] was 27.1%, the viability, T/C [7] was 7.43% and the viability, T/C (second compound 0.316 µM, first compound 0.000316 µM) was 100%. The viability, T/C (second compound 0.316 µM, first compound 0.001 µM) was 112%, the viability, T/C [28] was 111% and the viability, T/C [29] was 64.7%. The viability, T/C [10] was 21.5%, the viability, T/C [11] was 8% and the viability, T/C (second compound 1 µM, first compound 0.000316 µM) was 99.3%. It also gave a viability, T/C (second compound 1 µM, first compound 0.001 µM) of 105%, a viability, T/C [30] of 107% and a viability, T/C [31] of 68.9%. The viability, T/C [14] was 25.3% and the viability, T/C [15] was 8.08%.
